Test results as given in ChEMBL document CHEMBL4616592, “Design, synthesis and bio-evaluation of C-1 alkylated tetrahydro-β-carboline derivatives as novel antifungal lead compounds” (Bioorg Med Chem Lett, 2020).
In brackets after ≈: the same amount, converted by molar mass. Activity calls are given as the source filed them. No cut-off for these calls is given here.

Legend:
Candida tropicalis = test: Antifungal activity against Candida tropicalis assessed as fungal growth inhibition; type: functional
Pichia kudriavzevii = test: Antifungal activity against Candida krusei assessed as fungal growth inhibition; type: functional
Candida parapsilosis = test: Antifungal activity against Candida parapsilosis assessed as fungal growth inhibition; type: functional; settings: Lodderomyces parapsilosis
Nakaseomyces glabratus [1] = test: Antifungal activity against Candida glabrata assessed as fungal growth inhibition; type: functional
Cryptococcus neoformans = test: Antifungal activity against Cryptococcus neoformans assessed as fungal growth inhibition; type: functional
Candida albicans = test: Antifungal activity against Candida albicans assessed as fungal growth inhibition; type: functional
Kluyveromyces marxianus = test: Antifungal activity against Candida kefyr assessed as fungal growth inhibition; type: functional
Nakaseomyces glabratus [2] = test: Fungicidal activity against Candida glabrata assessed as time taken to kill fungal colony at MIC by time kill kinetic assay; type: functional
Nakaseomyces glabratus [3] = test: Induction of apoptosis in Candida glabrata assessed as live cells at 9.70 uM incubated for 4 hrs by annexin V-FITC/propidium iodide staining based analysis (reference value: 95.5%); type: functional
Nakaseomyces glabratus [4] = test: Synergistic antifungal activity against Candida glabrata assessed as fractional inhibitory concentration index in presence of fluconazole by checkerboard assay; type: functional
Nakaseomyces glabratus [5] = test: Induction of apoptosis in Candida glabrata assessed as necrotic cells at 9.70 uM incubated for 4 hrs by annexin V-FITC/propidium iodide staining based analysis (reference value: 1.4%); type: functional
Nakaseomyces glabratus [6] = test: Synergistic antifungal activity against Candida glabrata assessed as fractional inhibitory concentration index in presence of amphotericin B by checkerboard assay; type: functional
[7] = Cytotoxicity against human HEK293 cells assessed as cell viability at 20 to 50 uM by MTT assay relative to control; type: cell-based; settings: read-out: Activity
[8] = Cytotoxicity against human HeLa cells assessed as cell viability at 20 to 50 uM by MTT assay relative to control; type: cell-based; settings: read-out: Activity
[9] = Cytotoxicity against human HEK293 cells assessed as cell viability at 2.5 uM by MTT assay relative to control; type: cell-based; settings: read-out: Activity
Nakaseomyces glabratus [10] = test: Synergistic antifungal activity against Candida glabrata assessed as fractional inhibitory concentration index in presence of ketoconazole by checkerboard assay; type: functional
[11] = Cytotoxicity against human HeLa cells assessed as reduction in cell viability at 10 uM by MTT assay relative to control; type: cell-based; settings: read-out: INH
Nakaseomyces glabratus [12] = test: Induction of apoptosis in Candida glabrata assessed as early apoptotic cells at 9.70 uM incubated for 4 hrs by annexin V-FITC/propidium iodide staining based analysis (reference value: 3%); type: functional
Nakaseomyces glabratus [13] = test: Induction of morphological changes in Candida glabrata assessed as increase in asymmetry at 9.7 uM by FE-SEM analysis; type: functional, organism-based
[14] = Cytotoxicity against human HEK293 cells assessed as reduction in cell viability at 10 uM by MTT assay relative to control; type: cell-based; settings: read-out: INH
Nakaseomyces glabratus [15] = test: Induction of apoptosis in Candida glabrata assessed as late apoptotic cells at 9.70 uM incubated for 4 hrs by annexin V-FITC/propidium iodide staining based analysis (reference value: 0.1%); type: functional
Nakaseomyces glabratus [16] = test: Induction of morphological changes in Candida glabrata assessed as roughness of cell surface at 9.7 uM by FE-SEM analysis; type: functional, organism-based
Nakaseomyces glabratus [17] = test: Synergistic antifungal activity against Candida glabrata assessed as fold potentiation of ketoconazole MIC for antifungal activity by checkerboard assay relative to control; type: functional
Nakaseomyces glabratus [18] = test: Induction of morphological changes in Candida glabrata assessed as disintegration of cell surface at 9.7 uM by FE-SEM analysis; type: functional, organism-based
Nakaseomyces glabratus [19] = test: Synergistic antifungal activity against Candida glabrata assessed as fold potentiation of AmphotericinB MIC for antifungal activity by checkerboard assay relative to control; type: functional
Nakaseomyces glabratus [20] = test: Synergistic antifungal activity against Candida glabrata assessed as fold potentiation of fluconazole MIC for antifungal activity by checkerboard assay relative to control; type: functional

| SMILES | MIC (Candida tropicalis) [µM] | MIC (Pichia kudriavzevii) [µM] | MIC (Candida parapsilosis) [µM] | MIC (Nakaseomyces glabratus [1]) [µM] | MIC (Cryptococcus neoformans) [µM] | MIC (Candida albicans) [µM] | MIC (Kluyveromyces marxianus) [µM] | further results |
| --- | --- | --- | --- | --- | --- | --- | --- | --- |
| CCCC[C@H]1N[C@H](C(=O)OC)Cc2c1[nH]c1ccccc21 | > 250 | 156 (≈ 44.7 µg/mL) | 156 (≈ 44.7 µg/mL) | > 250 | > 250 | > 250 | 156 (≈ 44.7 µg/mL) | – |
| CCCCCC[C@@H]1N[C@H](C(=O)OC)Cc2c1[nH]c1ccccc21 | > 250 | > 250 | > 250 | > 250 | 156 (≈ 49.1 µg/mL) | > 250 | > 250 | – |
| CCCCCCCC[C@H]1N[C@H](C(=O)OC)Cc2c1[nH]c1ccccc21 | 19.6 (≈ 6.7 µg/mL) | 19.6 (≈ 6.7 µg/mL) | 39.1 (≈ 13.4 µg/mL) | 9.7 (≈ 3.32 µg/mL) | 19.6 (≈ 6.7 µg/mL) | 39.1 (≈ 13.4 µg/mL) | 9.7 (≈ 3.32 µg/mL) | Time (Nakaseomyces glabratus [2]): 12 h; Activity (Nakaseomyces glabratus [3]): 5.6%; fractional inhibitory concentration index (FICI) (Nakaseomyces glabratus [4]): 0.48; Activity (Nakaseomyces glabratus [5]): 3.2%; fractional inhibitory concentration index (FICI) (Nakaseomyces glabratus [6]): 0.24; viability at up to 50 µM [7]: 70 to 80%; viability at up to 50 µM [8]: 70 to 80%; viability at 2.5 µM [9]: 95%; fractional inhibitory concentration index (FICI) (Nakaseomyces glabratus [10]): 0.35 - 0.38; cytotoxicity at 10 µM [11]: 14%; Activity (Nakaseomyces glabratus [12]): 3.5%; Activity (Nakaseomyces glabratus [13]): Active; cytotoxicity at 10 µM [14]: 10%; Activity (Nakaseomyces glabratus [15]): 87.7%; Activity (Nakaseomyces glabratus [16]): Active; fold change (FC) (Nakaseomyces glabratus [17]): 9; Activity (Nakaseomyces glabratus [18]): Active; fold change (FC) (Nakaseomyces glabratus [19]): 11; fold change (FC) (Nakaseomyces glabratus [20]): 4 |
| CCCC[C@@H]1N[C@H](C(=O)OC)Cc2c1[nH]c1ccccc21 | > 250 | > 250 | > 250 | > 250 | > 250 | > 250 | > 250 | – |
| COC(=O)[C@@H]1Cc2c([nH]c3ccccc23)[C@H](c2ccccc2)N1 | > 250 | > 250 | > 250 | > 250 | > 250 | > 250 | > 250 | – |
| C[C@@H]1[C@H](O)[C@@H](C)/C=C/C=C/C=C/C=C/C=C/C=C/C=C/[C@H](O[C@@H]2O[C@H](C)[C@@H](O)[C@H](N)[C@@H]2O)C[C@@H]2O[C@](O)(C[C@@H](O)C[C@@H](O)[C@H](O)CC[C@@H](O)C[C@@H](O)CC(=O)O[C@H]1C)C[C@H](O)[C@H]2C(=O)O [AMPHOTERICIN B] | 0.78 (≈ 0.721 µg/mL) | 0.78 (≈ 0.721 µg/mL) | 1.56 (≈ 1.44 µg/mL) | 0.39 to 0.78 (≈ 0.36 to 0.721 µg/mL) | 0.78 (≈ 0.721 µg/mL) | 1.56 (≈ 1.44 µg/mL) | 12.5 (≈ 11.6 µg/mL) | Time (Nakaseomyces glabratus [2]): 4 h |
| CCCCCCCC[C@@H]1N[C@H](C(=O)OC)Cc2c1[nH]c1ccccc21 | > 250 | > 250 | > 250 | 62.5 (≈ 21.4 µg/mL) | 39.1 (≈ 13.4 µg/mL) | > 250 | 62.5 (≈ 21.4 µg/mL) | – |
| CCCCCCCCCCC[C@@H]1N[C@H](C(=O)OC)Cc2c1[nH]c1ccccc21 | > 250 | > 250 | > 250 | > 250 | > 250 | > 250 | > 250 | – |
| OC(Cn1cncn1)(Cn1cncn1)c1ccc(F)cc1F [FLUCONAZOLE] | – | – | – | 13.1 (≈ 4 µg/mL) | – | – | – | – |
| CC(=O)N1CCN(c2ccc(OCC3COC(Cn4ccnc4)(c4ccc(Cl)cc4Cl)O3)cc2)CC1 (stereo unspecified) [KETOCONAZOLE] | – | – | – | 15.1 (≈ 8 µg/mL) | – | – | – | – |
| COC(=O)[C@@H]1Cc2c([nH]c3ccccc23)[C@H](c2cccnc2)N1 | > 250 | > 250 | > 250 | > 250 | > 250 | > 250 | > 250 | – |
| COC(=O)[C@@H]1Cc2c([nH]c3ccccc23)[C@@H](c2ccccc2)N1 | > 250 | > 250 | > 250 | > 250 | > 250 | > 250 | 125 (≈ 38.3 µg/mL) | – |
| COC(=O)[C@@H]1Cc2c([nH]c3ccccc23)[C@H](c2ccc3c(c2)OCO3)N1 | > 250 | > 250 | > 250 | > 250 | > 250 | > 250 | > 250 | – |
| CCCCCC[C@H]1N[C@H](C(=O)OC)Cc2c1[nH]c1ccccc21 | > 250 | > 250 | > 250 | > 250 | > 250 | > 250 | > 250 | – |
| COC(=O)[C@@H]1Cc2c([nH]c3ccccc23)[C@@H](c2cccnc2)N1 | > 250 | > 250 | > 250 | > 250 | > 250 | > 250 | > 250 | – |
| COC(=O)[C@@H]1Cc2c([nH]c3ccccc23)[C@@H](c2ccc3c(c2)OCO3)N1 | > 250 | > 250 | > 250 | > 250 | > 250 | > 250 | > 250 | – |
| CCCCCCCCCCC[C@H]1N[C@H](C(=O)OC)Cc2c1[nH]c1ccccc21 | > 250 | > 250 | > 250 | > 250 | > 250 | > 250 | > 250 | – |
| COC(=O)[C@@H]1Cc2c([nH]c3ccccc23)[C@H](c2cccs2)N1 | > 250 | > 250 | > 250 | > 250 | > 250 | > 250 | > 250 | – |
| COC(=O)[C@@H]1Cc2c([nH]c3ccccc23)[C@@H](c2cccs2)N1 | > 250 | > 250 | > 250 | > 250 | > 250 | > 250 | > 250 | – |
